Earlier results, collected in the CATMoS acute toxicity set (Mansouri et al. 2021).
Several values for one entry are separate records, joined by “and”; a condition that tells them apart may be missing. Identical values can stand only once.

experiment: rat acute oral toxicity; conditions: in vivo

Row | Compound | LD50
1 | ClC1=C(Cl)C2(Cl)C3CCC4C(CCC3C1(Cl)C2(Cl)Cl)C1(Cl)C(Cl)=C(Cl)C4(Cl)C1(Cl)Cl (stereo not drawn) | 25000 mg/kg
2 | O=C(O)C(F)(F)C(F)(F)C(F)(F)F | 2140 mg/kg
3 | CSCC(=NO)C(C)(C)C | 813 mg/kg
4 | CC(=O)OCCC(C)CCC=C(C)C (stereo not drawn) | 6800 mg/kg
5 | CCOC(=S)C=Cc1cc(OC)c(OC)c(OC)c1 | 1000 mg/kg
6 | CC(C)(C)c1ccc(C(=O)O)cc1 | 473 mg/kg
7 | CCC(CO)NC(=O)C1C=C2c3cccc4c3c(cn4C)CC2N(C)C1 (stereo not drawn) | 200 mg/kg
8 | Cc1ccccc1N1C(=O)C=CC1=O | 250 mg/kg
9 | CCc1ccc(=O)n(CSP(=S)(OC)OC)n1 | 30 mg/kg
10 | Cc1nc(N)sc1C(=O)Nc1ccccc1 | 1410 mg/kg
11 | Cc1cn([C@H]2C=C[C@@H](CO)O2)c(=O)[nH]c1=O | 4000 mg/kg
12 | CC(C)(C)N | 96 mg/kg
13 | COC(=O)C1CCc2cc(C3CCCCC3)ccc21 (stereo not drawn) | 410 mg/kg and 254 mg/kg
14 | CC(C)NCCCC1(C(N)=O)c2ccccc2-c2ccccc21 | 82 mg/kg
15 | Cn1cc[nH]c1=S | 2250 mg/kg
16 | C/N=N/Nc1ccc([N+](=O)[O-])cc1 | 468 mg/kg
17 | O=C(CN1CC1)NCCCCCCCCNC(=O)CN1CC1 | 225 mg/kg
18 | CN1CCC2(C)c3cc(OC(=O)NCCCCCCCCCCN4CCOCC4)ccc3N(C)C12 (stereo not drawn) | 40 mg/kg
19 | CON=C(C(=O)N[C@@H]1C(=O)N2C(C(=O)O)=C(COC(N)=O)CS[C@H]12)c1ccco1 | 10000 mg/kg
20 | COc1cc(N)c2c(c1N)C(=O)c1ccccc1C2=O | 891 mg/kg
21 | Clc1cccc(-c2cc(Cl)cc(Cl)c2)c1 | 2300 mg/kg
22 | C=CCCC=O | 620 mg/kg
23 | CC(c1ccccc1)c1ccc(O)cc1O (stereo not drawn) | 500 mg/kg
24 | CCN(Cc1ccccc1)N=O | 250 mg/kg

Row | Compound | LD50
25 | O=C1NCc2ccccc2O1 | 1050 mg/kg
26 | Cc1cn([C@H]2C[C@H](N=[N+]=[N-])[C@@H](CO)O2)c(=O)[nH]c1=O | 3080 mg/kg
27 | CNC(=O)Oc1ccccc1C1SCCS1 | 90 mg/kg
28 | CCCc1ccc(C)cc1O | 730 mg/kg
29 | CN(C)C(=O)c1ccccc1O | 2300 mg/kg
30 | CCOC(=O)C(C#N)C(C)=O (stereo not drawn) | 500 mg/kg
31 | COP(=O)(NC(=O)CCCCl)SC (stereo not drawn) | 3 mg/kg
32 | CO[C@H]1CC[C@H](O[C@@]2(C)[C@H](C[C@@H]3C[C@@H](OC)[C@@H](C)[C@]4(O3)O[C@](C)(C3CC[C@@H]([C@H]5CC[C@H](C6O[C@](C)(O)[C@H](C)C[C@@H]6C)O5)O3)[C@H](OC)[C@H]4C)O[C@](O)([C@@H](C)C(=O)O)[C@H](C)[C@@H]2OC)O[C@@H]1C (stereo partly drawn) | 10 mg/kg
33 | O=S(=O)(c1cccc2cnccc12)N1CCCNCC1 | 335 mg/kg
34 | CC12CCC(CC1=O)C2(C)C=O (stereo not drawn) | 3100 mg/kg
35 | CCCCOCCCOC(=O)CCOc1cc(Cl)c(Cl)cc1Cl | 500 mg/kg
36 | COP(=S)(OC)SCn1nc(Cl)c(Cl)cc1=O | 12000 mg/kg
37 | O=C(Cl)c1ccc(Oc2ccc(C(=O)Cl)cc2)cc1 | 8700 mg/kg
38 | Cc1cc(C)c(C2=C(OC(=O)OC(C)C)c3ccccc3C2=O)c(C)c1 | 707 mg/kg
39 | C=CBr | 500 mg/kg
40 | C=CCN(CC=C)N=O | 800 mg/kg
41 | CSC#N | 60 mg/kg
42 | Cc1cccc(C)c1CCNC(N)=O | 1500 mg/kg
43 | Brc1cc2c(cc1Br)Oc1cc(Br)c(Br)cc1O2 | 0.1 mg/kg
44 | c1ccc([B-](c2ccccc2)(c2ccccc2)c2ccccc2)cc1 | 288 mg/kg
45 | ClC=C(Cl)c1ccccc1 | 4000 mg/kg
46 | CC[C@]1(CO)CCCN2CCc3c([nH]c4ccccc34)[C@@H]21 | 1200 mg/kg
47 | CC(C)Oc1cc(-n2nc(C(C)(C)C)oc2=O)c(Cl)cc1Cl | 3500 mg/kg
48 | COP(=S)(OC)SC1CCC2C=CCC1S2 (stereo not drawn) | 1000 mg/kg

Row | Compound | LD50
49 | O=[N+]([O-])c1ccc(OP(=O)(OCCCCl)OCCCCl)cc1 | 33 mg/kg
50 | CCCCNC(=S)NCCCC | 350 mg/kg
51 | CC[N+](CC)(CC)Cc1ccc(C(C)C(C)c2ccccc2)cc1 (stereo not drawn) | 2180 mg/kg
52 | C1=CCCCC1 | 1950 mg/kg
53 | O=C(OC1CCC(N2CCCCC2)CC1)c1ccccc1 (stereo not drawn) | 780 mg/kg
54 | CN(C)CCN(Cc1cccs1)c1ccccn1 | 200 mg/kg
55 | CN(C)C(=O)C(CCN1CCC(O)(c2ccc(Cl)cc2)CC1)(c1ccccc1)c1ccccc1 | 185 mg/kg and 98 mg/kg
56 | Cl[C@H]1[C@H](Cl)[C@@H](Cl)[C@H](Cl)[C@H](Cl)[C@H]1Cl (racemic) | 177 mg/kg
57 | CCC12CCC3c4ccc(O)cc4CCC3C1CC(O)C2O (stereo not drawn) | 5010 mg/kg
58 | O=CNc1ccc(Br)cc1 | 1120 mg/kg
59 | NC(=S)NNCNNC(N)=S | 6.35 mg/kg
60 | CCOC(C1=NCC(CC)(CC)CN1)c1ccc(Cl)cc1 (stereo not drawn) | 375 mg/kg
61 | COc1ccccc1N1CCN(CCCc2ccc3c(c2)CCC(=O)N3)CC1 | 500 mg/kg
62 | CC(=O)OCCCl | 10 mg/kg
63 | CCCc1ccccc1O | 500 mg/kg
64 | C=C(C)C(=O)OCCN(CCOC(=O)C(=C)C)CCOC(=O)C(=C)C | 11200 mg/kg
65 | Cc1c(COC(=O)[C@@H]2[C@H](/C=C(\Cl)C(F)(F)F)C2(C)C)cccc1-c1ccccc1 (racemic) | 54.5 mg/kg
66 | Nc1ncnc2[nH]ncc12 | 141 mg/kg
67 | CC(C)CCOC(CO)CC(C)C (stereo not drawn) | 5410 mg/kg
68 | CCOP(=S)(OCC)SCn1c(=O)oc2ccccc21 | 81 mg/kg
69 | COc1cc(N)ccc1N | 60 mg/kg and 70 mg/kg
70 | CCCCCOC(C[n+]1ccccc1)c1ccc(C2CCCCC2)cc1 (stereo not drawn) | 250 mg/kg
71 | CC(C)(C)[C@@H](O)/C(=C\c1ccc(Cl)cc1Cl)n1cncn1 | 474 mg/kg
72 | CCCCCCCCCCCCCCCCCC(=O)NC(CCC(=O)O)C(=O)O (stereo not drawn) | 3000 mg/kg

Row | Compound | LD50
73 | c1ccc([C@H]2CN3CCSC3=N2)cc1 | 480 mg/kg
74 | CCCCC(C=CC(C)=O)CC (stereo not drawn) | 8120 mg/kg
75 | CCOC(=O)C(C#N)C(=O)Cc1c(C)n(C(=O)c2ccc(Cl)cc2)c2ccc(OC)cc12 (stereo not drawn) | 82 mg/kg
76 | COc1cc([C@@H]2c3cc4c(cc3[C@H](O[C@@H]3O[C@@H]5COC(c6ccccc6)O[C@H]5[C@H](O)[C@H]3O)[C@H]3COC(=O)[C@H]23)OCO4)cc(OC)c1OC (stereo partly drawn) | 823 mg/kg
77 | CC(CN1C(=O)N(CC2CO2)C(C)(C)C1=O)OCC1CO1 (stereo not drawn) | 1800 mg/kg
78 | OCP(CO)CO | 178 mg/kg
79 | ClC(Cl)c1cccc(Oc2ccccc2)c1 | 6000 mg/kg
80 | FC(F)(F)c1nc2c(Cl)cc(Cl)cc2[nH]1 | 3.29 mg/kg
81 | CCCCCCCCCCCCN | 1020 mg/kg
82 | C1C[C@H]2C[C@@H]1[C@H]1SSS[C@@H]21 | 300 mg/kg
83 | CCCc1ccc(O)cc1 | 500 mg/kg
84 | CN1C2CCC(C)(C)C1CC(OC(=O)C(O)(c1cccs1)c1cccs1)C2 (stereo not drawn) | 1180 mg/kg
85 | CCc1ccc(C)cc1O | 530 mg/kg
86 | OCCN1CCN(CCCN2c3ccccc3Sc3cc(Cl)cnc32)CC1 | 657 mg/kg
87 | CC[N+](CC)(CC)CCOC(=O)C(C1CCCC1)C1CCCC1 | 780 mg/kg
88 | O=NN1CCNCC1 | 2260 mg/kg
89 | Oc1ccc2ccccc2c1Cl | 2310 mg/kg
90 | CC(C)=NNC(=O)CSc1cc(Oc2ccc(C)cc2)ncn1 | 900 mg/kg
91 | C1COCCOCCOCCO1 | 2830 mg/kg
92 | CCN(CCC#N)c1ccccc1 | 4840 mg/kg
93 | CNCCCN1c2ccccc2CCc2ccccc21 | 375 mg/kg and 871 mg/kg
94 | COc1cc2c(cc1OC)[C@@H]1C(=O)c3ccc4c(c3O[C@@H]1CO2)C[C@H](C(C)C)O4 | 2500 mg/kg
95 | CC1(C)C(C=NOCc2ccco2)C1C(=O)OC(C#N)c1cccc(Oc2ccccc2)c1 (stereo not drawn) | 91 mg/kg
96 | CCCCNCCC[Si](OC)(OC)OC | 12800 mg/kg

Row | Compound | LD50
97 | CC(C(=O)O)c1ccc2c(c1)[nH]c1ccc(Cl)cc12 (stereo not drawn) | 74 mg/kg
98 | OCc1ccc(OCCn2ccnc2)cc1 | 4860 mg/kg
99 | CCC(Br)(CC)C(=O)OCC(Br)(Br)Br | 2500 mg/kg
100 | C#CCCl | 165 mg/kg
101 | CCN(O)CC | 2190 mg/kg
102 | Cc1ccc(O)c(C2CCCCC2)c1 | 1870 mg/kg
103 | CC(N)(Cc1ccc(O)c(O)c1)C(=O)O (stereo not drawn) | 5710 mg/kg
104 | COc1cc(NC(=O)OCCCN2CCN(c3ccccc3)CC2)cc(OC)c1OC | 900 mg/kg
105 | NC(CCN1CCCCCC1)=NO | 500 mg/kg
106 | COc1ccc2cc(C(C)C(=O)OCCO)ccc2c1 (stereo not drawn) | 1720 mg/kg
107 | CCCCCCCCCC(=O)OCCN1CCN(CCCN2c3ccccc3Sc3ccc(C(F)(F)F)cc32)CC1 | 19 mg/kg
108 | O=C(Cl)C(Cl)(Cl)Cl | 600 mg/kg
109 | CC(=O)CCC1C(=O)N(c2ccccc2)N(c2ccccc2)C1=O | 720 mg/kg
110 | Cc1ccc(O)c([N+](=O)[O-])c1 | 3360 mg/kg
111 | CCN(CC(F)(F)F)N=O | 960 mg/kg
112 | CCCC(=O)OC(Cl)C(Cl)(Cl)Cl (stereo not drawn) | 1480 mg/kg
113 | CCOC(C1=NCC(C)(C)CN1)c1cccc2ccccc12 (stereo not drawn) | 55 mg/kg
114 | CCCCC(CC)CNC1CCCCC1 (stereo not drawn) | 710 mg/kg
115 | Cc1cc(C(C)(C)C)c(O)c(C)c1CC1=NCCN1 | 0.8 mg/kg and 0.68 mg/kg
116 | CC(=O)OCC(COC(C)=O)OC(C)=O | 3000 mg/kg
117 | CCOC(=O)c1ccc([N+](=O)[O-])cc1 | 2660 mg/kg
118 | C=CC(=O)OCC(=O)OCC | 215 mg/kg
119 | Nc1c([N+](=O)[O-])cc(Cl)cc1[N+](=O)[O-] | 400 mg/kg
120 | O=C(O)C(F)(F)C(F)(F)C(F)(F)C(F)F | 1760 mg/kg

Row | Compound | LD50
121 | CCCCC(O)CC (stereo not drawn) | 1870 mg/kg
122 | CC(C)(C)c1cc(CCC(=O)NCCN)cc(C(C)(C)C)c1O | 1560 mg/kg
123 | NC1CCC(CC2CCC(N)CC2)CC1 (stereo not drawn) | 1750 mg/kg
124 | O=C(c1ccc(Cl)cc1)n1cc(Cc2nn[nH]n2)c2ccccc21 | 1200 mg/kg
125 | Clc1ccc(-c2cccc(Cl)c2Cl)c(Cl)c1 | 4250 mg/kg
126 | c1cc2c(cc1C1CO1)O2 (stereo not drawn) | 2830 mg/kg
127 | O=C(CCCN1CCC2(CCCCC2)CC1)c1ccc(F)cc1 | 200 mg/kg
128 | CCCCC(CC)COCCCN (stereo not drawn) | 320 mg/kg
129 | CC(C)(Oc1ccc(Cl)cc1)C(=O)OCc1cccc(CO)n1 | 1250 mg/kg
130 | CCCCSc1ccc(C(SCCN(C)C)c2ccccc2)cc1 (stereo not drawn) | 3800 mg/kg
131 | CCCCN(CCN(CCCC)C(=O)N1CCOCC1)C(=O)N1CCOCC1 | 270 mg/kg
132 | ClC1=C(Cl)[C@]2(Cl)[C@H]3[C@H]([C@H]4C=C[C@H]3C4)[C@@]1(Cl)C2(Cl)Cl | 7 mg/kg
133 | C=C1CC(C)C2C3Cc4ccc(O)cc4C2(CCN3CC2CCC2)C1 (stereo not drawn) | 750 mg/kg
134 | c1cc2c(c(NC3=NCCN3)c1)CCC2 | 481 mg/kg
135 | Cc1ccc(N)cc1Cl | 655 mg/kg
136 | CN(C)N=O | 37 mg/kg
137 | Oc1c(I)cc(I)c(O)c1I | 8200 mg/kg
138 | CCOC(=O)CSP(=S)(OCC)OCC | 1100 mg/kg
139 | CNC(=O)Oc1cc(C)c(SC)c(C)c1 | 20 mg/kg
140 | CNC(=O)ON=C1C2CCC(C2)C1(C)[N+](=O)[O-] (stereo not drawn) | 24 mg/kg
141 | CCN(C(C)C)C(C)C | 317 mg/kg
142 | CN(CCO)c1ccc(N=Nc2c(Cl)cc([N+](=O)[O-])cc2Cl)cc1 | 2820 mg/kg
143 | Cc1nc(-c2cccnc2)sc1[N+](=O)[O-] | 815 mg/kg
